This note sets out measurements from patent US6281222A (Inotek Corporation, priority 2000, dated 2001).

For data set [1], the system named is liver tissues (centrilobular injury). Description: Histological injury score in the liver. It counts as in vivo, rats. The procedure: Scoring was performed by two independent investigators who were blinded to the treatment regimen. The following grading system was used: 0--normal liver, no signs of injury; 1--rare areas of centrilobular injury; 2--moderate injury involving many centrilobular areas; 3--extensive centrilobular necrosis; 4--massive hepatic injury involving all centrilobular areas and beyond.

The subject of data set [2] is acetaminophen-induced mortality. Briefly: Dose response survival study. It counts as in vivo. The settings on record: for protective effect / survival: 24 hours; for survival rate: vehicle 25%; for survival: vehicle 0%. The procedure:
The minimally effective dose of AHPP was examined. Criteria for an effective dose included ability to suppress liver injury and protect against acetaminophen-induced mortality. […] Although the effect was only partial, ALT levels were reduced by 56±16% (n=8; p<0.05).
In order to validate the significance of the above mentioned reductions in serum transaminases, a dose response survival study was also performed. […] Survival rate was 25% in the vehicle treated group, and improved to 87% with 3 mg/kg and 10 mg/kg q8h doses. […] For the survival studies, n=8-10 animals per group. […] The effective dose range lays between 10 and 50 mg/kg of AHPP q8h per enteral gavage.

Data set [3] relates to acetaminophen-intoxicated mice. Briefly: Survival after severe acetaminophen intoxication, fasted 36 hours (FIG. 3). Format: in vivo.
The subject of data set [4] is acetaminophen-induced liver injury. Description: Minimally effective AHPP dose: reduction in serum ALT. It counts as in vivo.
Data set [5] has the same test system. Briefly: Plasma ALT and AST release after acetaminophen, with simultaneous AHPP treatment (FIGS. 1A and 1B). It counts as in vivo, rats. The settings on record: AHPP 50 mg/kg q8h per gavage, simultaneous with acetaminophen 350 mg/kg i.p. The procedure: The effect of AHPP on the release of ALT and AST in plasma was examined. […] The effect of AHPP is measured by the release of AST and ALT in rats.

Data set [6] has as its system acetaminophen-induced increases in ALT plasma levels. Briefly: Serum/plasma ALT levels with different frequencies and starting points of AHPP or NAC treatment (FIG. 2). It counts as in vivo, rats. An excerpt:
The effectiveness of AHPP when given at various frequencies and starting points of administration was also examined. […] Serum ALT levels in rats were then examined
The bars from the left to the right represent the following groups: […]

A short description of data set [7]: Preliminary toxicity study, enteral administration. It counts as in vivo, mice. The settings on record: enteral gavage up to 1000 mg/kg (300, 500, 1000 mg/kg), 24 h, n=8 per group. The procedure: Preliminary toxicity studies were performed with AHPP to estimate the expected therapeutic ratio of the compound.
The nature of data set [8]: Survival after severe acetaminophen intoxication, fasted 36 hours (FIG. 3). The note with it: mouse, in vivo, ip; 350 mg/kg i.p., fasted 36 hours, by 8 hours. It counts as in vivo, mice.
[9] abbreviates: 50 mg/kg enterally, 4 h post-acetaminophen.

Each structure is given as a SMILES string. “Also recorded” adds a separate entry of the source.

Consider `Nc1nc(O)nc2[nH]ncc12` [AHPP, 4-Amino-6-hydroxypyrazolo[3,4-d]pyrimidine], for which the “median histological injury score” value in data set [1] (AHPP+Acetaminophen, scale 0 (normal liver) to 4 (massive hepatic injury), p<0.05) is 2.1. Besides, in data set [1] (response to AHPP treatment, in words), the “histological injury in the liver” value was “significant attenuation of the histological injury”. Moreover, the values for the protective effect result in data set [2] (3 mg/kg q8h), in data set [2] (10 mg/kg q8h) and in data set [4] (3 mg/kg q8h per enteral gavage) were “lost its protective effect”, “maintained its protective effect” and “significant protection”, respectively. The survival rate in data set [2] (3 mg/kg q8h enteral gavage, 8 hours) was found to be 87%; in data set [2] (10 mg/kg q8h enteral gavage, 8 hours), 87%. In addition, the survival in data set [2] (3 mg/kg q8h enteral gavage) is on record as 0%; in data set [2] (10 mg/kg q8h enteral gavage) it was 63%. Besides, in data set [2] (3 and 10 mg/kg q8h enteral gavage, 8 hours), the protection against mortality result is “significantly protected against mortality”. Also, in data set [3] (AHPP 30 mg/kg q8h gavage, simultaneous with acetaminophen 350 mg/kg i.p.), the protection / survival entry was “markedly protective; also recorded: dramatically prolonged survival”. Also, in data set [4] (3 mg/kg q8h per enteral gavage, n=8, p<0.05), the “reduction in ALT levels” value stood at 56±16%. For the same molecule, the “efficacy relative to 50 mg/kg dose” value in data set [4] (10 mg/kg q8h per enteral gavage) was “equivalent in efficacy to the 50 mg/kg dose”. Further, the “reduction in serum ALT concentration” value in data set [4] (10 mg/kg q8h per enteral gavage, n=7, p<0.01) stood at 89%. Moreover, the “degree of liver injury, as assessed by release of ALT and AST” value in data set [5] is listed as “significantly reduced the degree of liver injury”. For the same molecule, the “protective effect, 8 h+16 h” value in data set [6] (50 mg/kg enteral gavage at 8 h and 16 h post-acetaminophen) is listed as “significant protective effects”. Besides, the “effect on ALT levels, 4 h post-treatment” value in data set [6] (50 mg/kg enterally, 4 h post-acetaminophen, no supplemental doses) is given as “reduced”. Also, in data set [6] (concurrent with, or subsequent to acetaminophen), the “ALT levels vs acetaminophen alone” value is listed as “lowered ALT levels”. Besides, the enteral uptake entry in data set [6] (inferred from efficacy via gavage, 24 h protocol) is “sufficient enteral uptake”. Also, the “effect of timing and frequency of administration” value in data set [6] (start close in time to acetaminophen, followed by additional treatments at 8 h interval) is given as “most effective”. Besides, in data set [6] (summary of data), the “hepatoprotection, conclusion” value was “advantageously compares to NAC as a hepatoprotective agent; also recorded: effective via an enteral delivery route; also recorded: effective both as a co-treatment and in delayed post-treatment regimens”. For the same molecule, the “mortality or behavioral or histological alterations” value in data set [7] is “did not result in mortality or behavioral or histological alterations”.
As to `CC(=O)N[C@@H](CS)C(=O)O` [N-acetyl-cysteine, reference compound], in data set [6] (50 mg/kg enterally at time of acetaminophen injection), the “protective effect, co-treatment (0 h)” value was “significantly protective”. For the same molecule, in data set [6] (setting [9]), the “degree of liver injury, 4 h post-treatment” value is “exacerbated the degree of liver injury” and the “protective effect, 4 h post-treatment” value was “lost its protective effect”.
The term mortality denotes the share of the test organisms that died. A low value points to more survivors. In data set [3] (350 mg/kg i.p., fasted 36 hours), `CC(=O)Nc1ccc(O)cc1` [acetaminophen, reference compound] came in with an onset of lethality of 2 h. This molecule gave a mortality at 8 h in data set [8] of 75%.
